{"source": "patent US8067669B2", "about": "“Method for inducing resistance to fungal infection in transgenic plants using plant defense peptides” (The Curators Of The University Of Missouri, priority 2000, dated 2011)", "key": {"U. appendiculatus": {"test_system": "U. appendiculatus", "assay": "Inhibition of germling (germinated uredospore) growth", "assay_type": "cell-based, Uromyces appendiculatus", "conditions": "phage-peptide clones, ~250 germinated spores with 3×10^12 at 20 C overnight; listed as clone 19", "from_the_text": "Part D entails the generation of additional Sub-libraries by use of further rounds of biopanning including rounds 2, 3 and 4. Part B is repeated three times: • 1. For biopanning round 2, 4.2×10^11 TU phages from the 2nd Sub-library are used to produce Sub-library 3; • 2. For biopanning round 3, 5.6×10^11 TU phages amplified from the 2nd biopanning are used to produce Sub-library 4; and • 3. For biopanning round 4, 5.1×10^11 TU phages amplified from the 3rd biopanning are used to produce Sub-library 5. Colonies from biopanning-round 4 are picked, sequenced, and tested for inhibition of germling growth.\nPart E entails testing for inhibition of uredospore growth. Incubate 30 ul of germinated spores (˜250) with 3×10^12 at 20 C overnight. Assess fungal germ tube growth (i.e. germling growth) and compare with water and f88, i.e. phage only without any display peptide, as controls."}, "P. capsici zoospores [1]": {"test_system": "P. capsici zoospores", "assay": "Encystment assay with phage-displayed peptides", "assay_type": "cell-based, Phytophthora capsici", "conditions": "phage 2.5×10^9 virion; 20 minute incubation at room temperature", "procedure": "Following binding, the pathogen is observed for alterations in its development or ability to infect a host. […] The range of phage concentrations can vary, but generally ranges between 1 to 10×10^9 virion/μl. A negative control containing no phage is included in each screening. After an incubation period of usually about 20 minutes at room temperature, the number of zoospores encysted at each phage concentration is determined. Using this method it is possible to rationally select peptides of defined character and evaluate them for species- and life stage-specific induction of receptor-mediated functional responses, such a zoospore encystment. Peptides found to interfere with the development of a pathogen can be used to prevent or limit infection of a host with the pathogen.\nSelected phage clones were isolated according to Smith and Scott (Methods in Enzymology, 217:228-257, 1993), and twice purified using polyethylene glycol as described above with the exception that phage were resuspended in distilled water instead of TBS. The virion concentration was calculated by measuring the absorbance at A269 (Smith and Scott, Methods in Enzymology, 217:228-257, 1993). Water droplets of approximately 20 μl containing about 400 freshly released zoospores were incubated with phage at two-fold serial dilutions so that they contained phage-bearing peptides at concentrations of either 1×10^10, 5×10^9, 2.5×10^9 or 1.25×10^9 virion/μl of droplet. A negative control received no phage and was used to monitor the amount of spontaneous encystment in the zoospore population. After a 20 minute incubation at room temperature, the number of encysted zoospores was counted using a microscope at 100× magnification. The virion concentration of phage was calculated according to Smith and Scott (Methods in Enzymology, 217:228-257, 1993)."}, "P. capsici zoospores [2]": {"test_system": "P. capsici zoospores", "assay": "Binding of phage-displayed peptides to zoospores (eluted phage titered as TU)", "design": "species or system Phytophthora capsici", "conditions": "5×10^10 TU phage with 200,000 zoospores, 30 minutes incubation", "procedure": "An aliquot of 10^11 transducing units (TU) from the f8-1 library (Petrinko et al., Protein Engineering, 9:797-801, 1996) was added to 10^6 freshly released P. capsici zoospores at room temperature in 4 ml of 50 mM LiCl and incubated for 30 minutes at room temperature with gentle agitation. The same procedure was used for the 188-4 library except in some cases P. sojae zoospores were used (Soj clones). The zoospores containing the bound phage were washed 10 times in 150 μl of 50 mM LiCl and centrifuged at 1000×g for 45 seconds to remove unbound phage. After the tenth wash, the bound phage were eluted with 200 μl of elution buffer (0.1 N HCl, glycine sufficient to bring pH to 2.2, 1 mg/ml bovine serum albumin). […] Selective enrichment of the zoospore-binding phage was monitored by calculating the percent yield after each round of selection as described in Smith and Scott (Methods in Enzymology, 217:228-257, 1993). This was done by calculating the total phage (expressed as transducing units) that was applied to the zoospores and measuring the total output of phage (as transducing units) that was recovered from the zoospores and expressing the result as a percentage. […]\nPhage vector was included as a control treatment. […] Phage eluted from the zoospore population were titered in E. coli K91BluKan cells and expressed as total transducing units. […]"}, "P. capsici cysts": {"test_system": "P. capsici cysts", "assay": "Binding of phage-displayed peptides to cysts (eluted phage titered as TU)", "design": "species or system Phytophthora capsici", "conditions": "5×10^10 TU phage"}}, "data": [{"sequence": "NHVSTLKTRHRLIPF (Random peptide insert) [Pp 19]", "values": [{"measurement": "growth inhibition of U. appendiculatus (germlings)", "setting": "U. appendiculatus", "value": "inhibition"}]}, {"sequence": "AGLTSPNDM (Random peptide insert) [Pc15B]", "values": [{"measurement": "level of encystment of P. capsici zoospores", "setting": "P. capsici zoospores [1]", "value": "low levels of encystment"}]}, {"sequence": "AEHQNSAGP (Random peptide insert) [Pc45]", "values": [{"measurement": "level of encystment of P. capsici zoospores", "setting": "P. capsici zoospores [1]", "value": "low levels of encystment"}, {"measurement": "phage eluted from zoospores", "setting": "P. capsici zoospores [2]", "value": "about 50,000 TU"}]}, {"sequence": "ADITDPMGA (Random peptide insert) [Pc64]", "values": [{"measurement": "level of encystment of P. capsici zoospores", "setting": "P. capsici zoospores [1]", "value": "high levels of encystment"}]}, {"sequence": "ADPPRTVST (Random peptide insert) [Pc78]", "values": [{"measurement": "level of encystment of P. capsici zoospores", "setting": "P. capsici zoospores [1]", "value": "high levels of encystment"}]}, {"sequence": "AVSPNVHDG (Random peptide insert) [Pc42]", "values": [{"measurement": "level of encystment of P. capsici zoospores", "setting": "P. capsici zoospores [1]", "value": "high levels of encystment"}]}, {"sequence": "ADRPSMSPT (Random peptide insert) [Pc87]", "values": [{"measurement": "level of encystment of P. capsici zoospores", "setting": "P. capsici zoospores [1]", "value": "high levels of encystment"}, {"measurement": "phage eluted from zoospores", "setting": "P. capsici zoospores [2]", "value": "More than 10^7 TU"}, {"measurement": "phage eluted from cysts", "setting": "P. capsici cysts", "value": "less than 10^4 TU"}]}, {"sequence": "AAPDLQDAM (Random peptide insert) [Pc56]", "values": [{"measurement": "level of encystment of P. capsici zoospores", "setting": "P. capsici zoospores [1]", "value": "low levels of encystment"}]}]}
